From patent publication US20250230165A1, “HETEROCYCLIC COMPOUNDS FOR USE IN THE TREATMENT OF CANCER” (ARTIOS PHARMA LIMITED, priority 2021, published 2025)

Molecular target: T1, Human Polθ polymerase domain (aa1820-2590) (Homo sapiens, UniProt O75417)
T1 construct: Human Polθ polymerase domain (aa1820-2590) was expressed in E. coli; made in house; host or cells: E. coli
T1 sequence (O75417 1820-2590): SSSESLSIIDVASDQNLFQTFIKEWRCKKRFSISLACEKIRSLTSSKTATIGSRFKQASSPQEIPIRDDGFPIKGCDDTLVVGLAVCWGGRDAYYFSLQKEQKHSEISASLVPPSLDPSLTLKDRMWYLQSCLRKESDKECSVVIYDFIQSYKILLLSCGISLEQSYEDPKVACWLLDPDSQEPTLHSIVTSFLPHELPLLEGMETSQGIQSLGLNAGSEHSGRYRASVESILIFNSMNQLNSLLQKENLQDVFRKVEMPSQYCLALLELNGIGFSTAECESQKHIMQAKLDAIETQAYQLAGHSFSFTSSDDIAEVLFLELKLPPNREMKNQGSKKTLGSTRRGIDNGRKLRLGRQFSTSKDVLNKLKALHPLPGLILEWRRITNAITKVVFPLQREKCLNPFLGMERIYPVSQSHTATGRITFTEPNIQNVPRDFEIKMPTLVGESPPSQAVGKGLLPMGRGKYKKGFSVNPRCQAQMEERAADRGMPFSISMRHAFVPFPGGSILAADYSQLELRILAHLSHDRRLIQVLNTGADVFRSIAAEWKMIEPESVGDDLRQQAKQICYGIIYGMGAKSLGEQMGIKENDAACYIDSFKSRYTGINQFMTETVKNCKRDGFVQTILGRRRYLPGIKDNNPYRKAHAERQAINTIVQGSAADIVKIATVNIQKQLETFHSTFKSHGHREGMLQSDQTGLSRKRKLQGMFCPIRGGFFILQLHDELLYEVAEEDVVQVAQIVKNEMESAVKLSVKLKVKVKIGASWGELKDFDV
Assay: Polθ Polymerase Domain Kinact/KI Assay (PicoGreen)
Format: biochemical
Conditions: 0.8 nM Polθ, 100 nM DNA substrate, kobs vs [I] fit for 2-step covalent inhibitor
How it was run: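 Kinact and KI derive from fitting kobs versus [I], where kobs were fitted from EDTA-stopped PicoGreen time courses (up to 60 min) in Tris pH 7.5 buffer with 1% DMSO, 0.8 nM enzyme, 100 nM DNA and […].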

With `Cc1cc(C(F)(F)F)cc(N2C(=O)C[C@@H]3CN(CC4CCC(C5CN(C(=O)/C=C/CN(C)C)C5)CC4)c4c(Cl)cccc4N(C)C(=O)[C@H]32)n1` (stereo partly drawn) [Example 155, (3aR, 11aS)-6-chloro-5-((4-(1-((E)-4-(dimethylamino)but-2-enoyl)azetidin-3-yl)cyclohexyl)methyl)-10-methyl-1-(6-methyl-4-(trifluoromethyl)pyridin-2-yl)-1,3a,4,5,10,11a-hexahydro-2H-benzo[b]pyrrolo[2,3-f][1,4]diazocine-2,11(3H)-dione] the Kinact/Kl was 2.51e+06 M⁻¹ s⁻¹.

Molecule `Cc1cc(C(F)(F)F)cc(N2C(=O)C[C@@H]3CN(CCCOC4CN(C(=O)/C=C/CN(C)C)C4)c4c(F)cccc4N(C)C(=O)[C@H]32)n1` [Example 43, (3aR,11aS)-5-(3-((1-((E)-4-(dimethylamino)but-2-enoyl)azetidin-3-yl)oxy)propyl)-6-fluoro-10-methyl-1-(6-methyl-4-(trifluoromethyl)pyridin-2-yl)-1,3a,4,5,10,11a-hexahydro-2H-benzo[b]pyrrolo[2,3-f][1,4]diazocine-2,11(3H)-dione] has a Kinact/Kl of 1.9e+06 M⁻¹ s⁻¹.

Molecule `C=CC(=O)N1CC2(CN(CCN3C[C@H]4CC(=O)N(c5cc(C(F)(F)F)cc(C)n5)[C@@H]4C(=O)N(C)c4cccc(F)c43)CC3COCCN32)C1` (single isomer, unassigned) [Example 24a] has a Kinact/Kl of 1.63e+06 M⁻¹ s⁻¹.

Molecule `Cc1cc(C(F)(F)F)cc(N2C(=O)C[C@@H]3CN(Cc4ccc(NC(=O)/C=C/CN(C)C)cc4)c4c(C)cccc4N(C)C(=O)[C@H]32)n1` [Example 207, (E)-N-(4-(((3aR, 11aS)-6,10-dimethyl-1-(6-methyl-4-(trifluoromethyl)pyridin-2-yl)-2,11-dioxo-1,2,3,3a,4,10,11,11a-octahydro-5H-benzo[b]pyrrolo[2,3-f][1,4]diazocin-5-yl)methyl)phenyl)-4-(dimethylamino) but-2-enamide] has a Kinact/Kl of 1.82e+06 M⁻¹ s⁻¹.

`Cc1cc(C(F)(F)F)cc(N2C(=O)C[C@@H]3CN(Cc4ccc(C5CN(C(=O)/C=C/CN(C)C)C5)cc4)c4c(F)cccc4N(C)C(=O)[C@H]32)n1` [Example 146, (3aR,11aS)-5-(4-(1-((E)-4-(dimethylamino)but-2-enoyl)azetidin-3-yl)benzyl)-6-fluoro-10-methyl-1-(6-methyl-4-(trifluoromethyl)pyridin-2-yl)-1,3a,4,5,10,11a-hexahydro-2H-benzo[b]pyrrolo[2,3-f][1,4]diazocine-2,11(3H)-dione] gave a Kinact/Kl of 1.68e+06 M⁻¹ s⁻¹.

In the case of `C=CC(=O)N1CCn2cc(CN3C[C@H]4CC(=O)N(c5cc(C(F)(F)F)cc(C)n5)[C@@H]4C(=O)N(C)c4cccc(Cl)c43)nc2C1C` (single isomer, unassigned) [Example 142a], the Kinact/Kl is reported as 1.75e+06 M⁻¹ s⁻¹.

`C=C(CN(C)C)C(=O)N1CCN(C(=O)CCN2C[C@H]3CC(=O)N(c4cc(C(F)(F)F)cc(C)n4)[C@@H]3C(=O)N(C)c3cccc(Cl)c32)CC1` [Example 86, (3aR,11aS)-6-chloro-5-(3-(4-(2-((dimethylamino)methyl)acryloyl)piperazin-1-yl)-3-oxopropyl)-10-methyl-1-(6-methyl-4-(trifluoromethyl)pyridin-2-yl)-1,3a,4,5,10,11a-hexahydro-2H-benzo[b]pyrrolo[2,3-f][1,4]diazocine-2,11(3H)-dione] showed a Kinact/Kl of 3.49e+06 M⁻¹ s⁻¹.

`Cc1cc(C(F)(F)F)cc(N2C(=O)C[C@@H]3CN(Cc4ccc(NC(=O)/C=C/CN(C)C)cc4F)c4c(Cl)cccc4N(C)C(=O)[C@H]32)n1` [Example 246, (E)-N-(4-(((3aR,11aS)-6-chloro-10-methyl-1-(6-methyl-4-(trifluoromethyl)pyridin-2-yl)-2,11-dioxo-1,2,3,3a,4,10,11,11a-octahydro-5H-benzo[b]pyrrolo[2,3-f][1,4]diazocin-5-yl)methyl)-3-fluorophenyl)-4-(dimethylamino)but-2-enamide] was tested, and the Kinact/Kl was 420000 M⁻¹ s⁻¹.

Work on `C=CC(=O)N1CCN2CC(=O)N(CCN3C[C@H]4CC(=O)N(c5cc(C(F)(F)F)cc(C)n5)[C@@H]4C(=O)N(C)c4cccc(F)c43)C[C@H]2C1` [Example 48, (3aR,11aS)-5-(2-((R)-8-acryloyl-3-oxooctahydro-2H-pyrazino[1,2-a]pyrazin-2-yl)ethyl)-6-fluoro-10-methyl-1-(6-methyl-4-(trifluoromethyl)pyridin-2-yl)-1,3a,4,5,10,11a-hexahydro-2H-benzo[b]pyrrolo[2,3-f][1,4]diazocine-2,11(3H)-dione] yielded a Kinact/Kl of 110000 M⁻¹ s⁻¹.

`Cc1cc(C(F)(F)F)cc(N2C(=O)C[C@@H]3CN(CCCOC4CN(C(=O)C5=CCCNC5)C4)c4c(C)cccc4N(C)C(=O)[C@H]32)n1` [Example 82, (3aR,11aS)-6,10-dimethyl-1-(6-methyl-4-(trifluoromethyl)pyridin-2-yl)-5-(3-((1-(1,2,5,6-tetrahydropyridine-3-carbonyl)azetidin-3-yl)oxy)propyl)-1,3a,4,5,10,11a-hexahydro-2H-benzo[b]pyrrolo[2,3-f][1,4]diazocine-2,11(3H)-dione] was tested, and the Kinact/Kl was 920000 M⁻¹ s⁻¹.

`C=CC(=O)N1CC(c2nc(CN3C[C@H]4CC(=O)N(c5cc(C(F)(F)F)cc(C)n5)[C@@H]4C(=O)N(C)c4cccc(F)c43)no2)C1` [Example 101, (3aR,11aS)-5-((5-(1-acryloylazetidin-3-yl)-1,2,4-oxadiazol-3-yl)methyl)-6-fluoro-10-methyl-1-(6-methyl-4-(trifluoromethyl)pyridin-2-yl)-1,3a,4,5,10,11a-hexahydro-2H-benzo[b]pyrrolo[2,3-f][1,4]diazocine-2,11(3H)-dione] showed a Kinact/Kl of 1.47e+06 M⁻¹ s⁻¹.

Work on `C#CC(=O)N1Cc2nc(CN3C[C@H]4CC(=O)N(c5cc(C(F)(F)F)cc(C)n5)[C@@H]4C(=O)N(C)c4cccc(C)c43)cn2C[C@H]1C` (racemic) [Example 199, (3aR,11aS)-6,10-dimethyl-1-(6-methyl-4-(tri-fluoromethyl)pyr-idin-2-yl)-5-(((R/S)-6-methyl-7-propioloyl-5,6,7,8-tetrahydro-imidazo[1,2-a]pyr-azin-2-yl)methyl)-1,3a,4,5,10,11a-hexahydro-2H-benzo[b]pyrrolo [2,3-f][1,4]diazo-cine-2,11(3H)-dione] yielded a Kinact/Kl of 1.38e+06 M⁻¹ s⁻¹.

`C=CC(=O)N1CC(n2cc(CN3C[C@H]4CC(=O)N(c5cc(C(F)(F)F)cc(C)n5)[C@@H]4C(=O)N(C)c4cccc(F)c43)cn2)C1` [Example 121, (3aR,11aS)-5-((1-(1-acryloylazetidin-3-yl)-1H-pyrazol-4-yl)methyl)-6-fluoro-10-methyl-1-(6-methyl-4-(trifluoromethyl)pyridin-2-yl)-1,3a,4,5,10,11a-hexahydro-2H-benzo[b]pyrrolo[2,3-f][1,4]diazocine-2,11(3H)-dione] gave a Kinact/Kl of 540000 M⁻¹ s⁻¹.

Molecule `C=CC(=O)N1CC(c2nccc(CN3C[C@H]4CC(=O)N(c5cc(C(F)(F)F)cc(C)n5)[C@@H]4C(=O)N(C)c4cccc(F)c43)n2)C1` [Example 129, (3aR,11aS)-5-((2-(1-acryloylazetidin-3-yl)pyrimidin-4-yl)methyl)-6-fluoro-10-methyl-1-(6-methyl-4-(trifluoromethyl)pyridin-2-yl)-1,3a,4,5,10,11a-hexahydro-2H-benzo[b]pyrrolo[2,3-f][1,4]diazocine-2,11(3H)-dione] has a Kinact/Kl of 400000 M⁻¹ s⁻¹.

`Cc1cc(C(F)(F)F)cc(N2C(=O)C[C@@H]3CN(Cc4ccn(C5CN(C(=O)/C=C/CN(C)C)C5)n4)c4c(F)cccc4N(C)C(=O)[C@H]32)n1` [Example 145, (3aR, 11aS)-5-((1-(1-((E)-4-(dimethylamino)but-2-enoyl)azetidin-3-yl)-1H-pyrazol-3-yl)methyl)-6-fluoro-10-methyl-1-(6-methyl-4-(trifluoromethyl)pyridin-2-yl)-1,3a,4,5,10,11a-hexahydro-2H-benzo[b]pyrrolo[2,3-f][1,4]diazocine-2,11(3H)-dione] showed a Kinact/Kl of 1.34e+06 M⁻¹ s⁻¹.

Work on `C=CC(=O)N1Cc2nc(CN3C[C@H]4CC(=O)N(c5cc(C(F)(F)F)cc(C)n5)[C@@H]4C(=O)N(C)c4cccc(Cl)c43)ccc2[C@@H]1CC#N` (racemic) [Example 290a] yielded a Kinact/Kl of 2.02e+06 M⁻¹ s⁻¹.

For `C=CC(=O)N1CC(N2CCN(CCN3C[C@H]4CC(=O)N(c5cc(C(F)(F)F)cc(C)n5)[C@@H]4C(=O)N(C)c4c(F)c(F)cc(Cl)c43)CC2)C1` [Example 20, (3aR,11aS)-5-(2-(4-(1-acryloylazetidin-3-yl)piperazin-1-yl)ethyl)-6-chloro-8,9-difluoro-10-methyl-1-(6-methyl-4-(trifluoromethyl)pyridin-2-yl)-1,3a,4,5,10,11a-hexahydro-2H-benzo[b]pyrrolo[2,3-f][1,4]diazocine-2,11(3H)-dione], the Kinact/Kl was 1.12e+06 M⁻¹ s⁻¹.
